Assay results: patent US20140296223A1, “METHOD FOR REGULATING SKIN PIGMENTATION” (THE GENERAL HOSPITAL CORPORATION, priority 2011, published 2014)

Key:
[1] = test system: Microphthalmia Transcription Factor (MITF); experiment: TRPM1-luciferase reporter screen for MITF antagonists in Skme15 melanoma cells; format: cell-based, human; details: for Z-Score: screen, suppression of TRPM1-luciferase activity, Skme15 cells
Excerpt: In order to carry out a successful MITF antagonist screen, the inventors utilized a TRPM1-luciferase reporter. […] Therefore, the TRPM1-luciferase reporter stably integrated into melanoma cells is effective for the screening assay. The use of melanoma cells, while less perfectly relevant than primary human melanocytes, afforded the advantages of speed and reproducibility for the screen.
In order to engineer a screen which broadly suppress MITF activity either by suppression of MITF expression or by inhibition of MITF activity, the inventors utilized a luciferase reporter containing the promoter of a strong direct transcriptional target of MITF, i.e., TRPM1 gene, the inventors have identified the active ingredients having the ability of inhibiting the expression or activation of Microphthalmia Transcription Factor (MITF) for medical or esthetic benefit. The inventors have previously identified the TRPM1 gene (also called “Melastatin”) as a direct target of MITF, which contains numerous MITF binding sites, and which directly responds in potent fashion to MITF overexpression (Miller A J, Du J, Rowan S, Hershey C L, Widlund H R, Fisher D E: Transcriptional regulation of the melanoma prognostic marker melastatin (TRPM1) by MITF in melanocytes and melanoma, Cancer Res 2004, 64:509-516). TRPM1 expression also correlates closely to MITF expression within human melanoma cell lines, as well as in clinical pigmented lesions (nevi and melanomas).
The TRPM1 promoter was ligated to the luciferase gene and inserted into a retroviral vector as well as a lentiviral vector. The lentiviral vector was used to infect primary human melanocytes, which then was subjected to a primary screen using the Broad Chemical Genetics core screening facility, and its natural products/extracts libraries. As backup, the retroviral vector was used to stably integrate into the genome of melanoma cells, which can be used for the identical small molecule screen. Screen optimization was carried out using forskolin and MSH as positive control small molecules (which upregulate cAMP and MITF expression (D'Orazio J A, Nobuhisa T, Cui R, Arya M, Spry M, Wakamatsu K, Igras V, Kunisada T, Granter S R, Nishimura E K, Ito S, Fisher D E: Topical drug rescue strategy and skin protection based on the role of Mc1r in UV-induced tanning, Nature 2006, 443:340-344)). Small molecules which suppress MSH induced TRPM1-luciferase without altering cell numbers or viability, represent initial “hits” in this screen. Negative control includes a constitutive luciferase vector within the same cells (eg driven by a constitutive promoter such as thymidine kinase promoter), to control for nonspecific inhibitors of basal transcriptional machinery-something which would otherwise be assessed in detail during secondary/tertiary analyses of candidate hits.
The human melanoma cell line Skme15 was utilized due to the advantageous growth properties as well as the inventors' prior experience that Skme15 expresses a typical level of MITF protein. […] Therefore, an integrated TRPM1-luciferase reporter was generated, and the subsequent cells were cloned twice (serially) to assure purity of the reporter cell population. Cells were maintained in drug selection to assure maintenance of the luciferase reporter (when drug was omitted, eventual loss of the luciferase signal was observed). Following re-cloning, distinct isolates were selected for further use on the basis of clonogenic growth on 384 well plates, as required for the small molecule screen. A positive control for suppression of TRPM1-luciferase signal utilized: a lentivirus encoding shRNA against MITF. […] The day-to-day variability in plating efficiency was analyzed, and found very high reproducibility in the line which was selected for further use in the screen.
The screen was carried out with a library from the Broad Institute comprising a mixture of natural products, known bioactives, and additional compounds (a total of about 13,000 compounds). […]

Skme15 = experiment: Toxicity with fluorescence viability probe (CellTiter-Fluo Cell Viability Assay); format: cell-based, human; details: composite of the variation between drug-treated and control divided by the standard error
Experimental: Although the shape of the dose-response can vary among hits, the inventors chose to include all candidates which produce dose-dependent effects. The fourth criterion which was determined is the IC50 (described formally as qAC50) which represents the half-maximal suppression dose. Most of the candidate hits resided in the high nanomolar to low micromolar range by this criterion (all of these validation data are listed in Table 1). The fifth criterion was maximal suppression (at any dose), which represented the magnitude of suppression which was attainable regardless of the dose required to achieve it. […] The sixth criterion to be determined is the Log P partition coefficient, which is a predictor of lipophilicity. For this, the inventors have used the method of Ghose and Crippen to calculate the predicted octanol-water partition coefficient (J. Comp. Chem. 9, 80(1988)). While this is only an estimate of potential skin penetration, the analysis was carried out because it helps in prioritizing likelihood of topical effectiveness, in theory. The seventh criterion was an analysis of toxicity utilizing a fluorescence viability probe (CellTiter-Fluo™ Cell Viability Assay (Promega)). Interpretation of this endpoint is complicated by the fact that it represents a composite of the variation between drug-treated and control divided by the standard error The results shown in Table 1 indicate 34 candidate molecules which satisfied all of the criteria outlined above. […] Most of their potencies ranged slightly below or above 1 uM. While the lipophilicity scores remain imperfect predictors of skin penetration capability. However, numbers of >3 can be more likely to penetrate.

SMILES | Z-Score [1] | Viability z-score (treated minus control, divided by standard error) (Skme15) | IC50 ([1]; IC50 (described formally as qAC50), half-maximal suppression dose, unit inferred, text says potencies around 1 uM) [nM] | Conc. At Maximal Activity ([1]; dose titration, unit not given, in M (unit assumed)) | Maximal Activity ([1]; maximal suppression of TRPM1-luciferase at any dose, dose titration)
N#CC(C#N)=C(Nc1ccc(Br)cc1)SCc1ccc(F)cc1 [{[(4-bromophenyl)amino][(4-fluorobenzyl)thio]methylene}malononitrile] | −9.463 | −1.5092 |  |  | 
COc1cc(C(=O)Nc2cc(-c3nc4ncccc4o3)ccc2C)ccc1OCc1ccc(Cl)cc1 [4-[(4-chlorobenzyl)oxy]-3-methoxy-N-(2-methyl-5-[1,3]oxazolo[4,5-b]pyridin-2-ylphenyl)benzamide] | −9.256 |  |  |  | 
CCOC(=O)c1c(C)n(Cc2ccccc2)c2ccc(OCC(O)CNC(C)(C)C)cc12 (stereo not shown) [Ethyl-1-benzyl-5-[3-(tert-butylamino)-2-hydroxypropoxy]-2-methyl-1H-indole-3-carboxylate] | −7.844 | −2.519 |  |  | 
COc1cc(CO)ccc1OCc1cccc(C(=O)O)c1 [3-{[4-(hydroxymethyl)-2-methoxyphenoxy]methyl}benzoic acid] | −10.9296 | −1.6406 |  |  | 
Cc1cccc(-c2nnc(SCC(=O)Nc3ccccc3F)o2)c1 [N-(2-fluorophenyl)-2-{[5-(3-methylphenyl)-1,3,4-oxadiazol-2-yl]thio}acetamide] | −10.7661 | −0.0206 |  |  | 
Cc1ccc(C23C[C@@H]4C[C@@H](CC(CN)(C4)C2)C3)cc1C [1-[(1S,3R,5R,7S)-3-(3,4-dimethylphenyl)adamantan-1-yl]methanamine] | −10.8562 | −1.015 | 2480 | 6.00E−06 | −149
CC(C)(C)c1ccc(C(=O)N2CCN(c3ccc([N+](=O)[O-])c(NCc4cccnc4)c3)CC2)cc1 [5-[4-(4-tert-butylbenzoyl)piperazin-1-yl]-2-nitro-N-(pyridin-3-ylmethyl)aniline] | −9.588 | −0.8893 |  |  | 
COc1cccc(C(=O)NC(c2ccc(Cl)cc2)c2c(O)ccc3ccccc23)c1 (stereo not shown) [N-[(4-chlorophenyl)(2-hydroxy-1-naphthyl)methyl]-3-methoxybenzamide] | −11.9861 | −0.1221 |  |  | 
Cc1ccc(OCC(=O)Nc2cccc(C(=O)O)c2)c(Br)c1 [3-{[(2-bromo-4-methylphenoxy)acetyl]amino}benzoic acid] | −10.0837 | −1.5092 |  |  | 
Cc1ccc2nc(-c3ccc(NC(=O)CSc4nnc(C)s4)cc3)sc2c1 [N-[4-(6-methyl-1,3-benzothiazol-2-yl)phenyl]-2-[(5-methyl-1,3,4-thiadiazol-2-yl)thio]acetamide] | −9.3543 | 1.032 |  |  | 
O=C(O)c1cccc(COc2ccc(CO)cc2Cl)c1 [3-{[2-chloro-4-(hydroxymethyl)phenoxy]methyl}benzoic acid] | −9.909 | −1.5092 |  |  | 
COc1ccc(OC)c(S(=O)(=O)N2CCC(C(=O)Nc3ccc(Cl)c(C(F)(F)F)c3)CC2)c1 [N-[4-chloro-3-(trifluoromethyl)phenyl]-1-[(2,5-dimethoxyphenyl)sulfonyl]piperidine-4-carboxamide] | −9.871 | −0.2442 |  |  | 
Oc1c(C(Nc2ccccn2)c2c(F)cccc2Cl)cc(Cl)c2cccnc12 (stereo not shown) [5-chloro-7-[(2-chloro-6-fluorophenyl)(pyridin-2-ylamino)methyl]quinolin-8-ol] | −9.327 | −2.226 |  |  | 
CCOC(=O)COc1cccc(-c2nc3ccccc3s2)c1 [Ethyl-[3-(1,3-benzothiazol-2-yl)phenoxy]acetate] | −9.663 | −0.0206 |  |  | 
O=C(CSc1nc2cc([N+](=O)[O-])ccc2[nH]1)Nc1cc(C(F)(F)F)cc(C(F)(F)F)c1 [N-[3,5-bis(trifluoromethyl)phenyl]-2-[(5-nitro-1H-benzimidazol-2-yl)thio]acetamide] | −10.0284 |  |  |  | 
